According to PubChem BioAssay AID652053 (Broad Institute, 2013):

Tested on: Huh7 psiCHECK-miR122 Renilla luciferase reporter, 48 h
Assay: miR-122 inhibitors in Huh7 reporter cells, dose response, cell-based, Huh7 psiCHECK-miR122, Renilla luciferase, cherry-pick (AID 652053)

Row | Compound | AC40 [µM]
1 | C[C@@H]1CN([C@H](C)CO)C(=O)c2cccc(NC(=O)NC3CCCCC3)c2O[C@H]1CN(C)Cc1ccc(Cl)c(Cl)c1 | 0.891
2 | O=C(Nc1ccc(S(=O)(=O)Nc2nccs2)cc1)c1cc(-c2ccccc2Cl)nc2ccccc12 | 2.48
3 | COc1ccc(C(C)(C)C)cc1S(=O)(=O)NCC1CCCO1 (centres undefined) | 0.329
4 | CCN(CC)c1ccc(NC(=O)c2ccccn2)cc1S(=O)(=O)Nc1ccccc1OC | 4.42
5 | COc1ccc(NS(=O)(=O)c2ccc(NC(=S)NC(=O)CC(C)C)cc2)cc1 | 0.502
6 | COc1ccc(S(=O)(=O)Nc2ccc(F)cc2)c(C)c1C | 0.922
7 | CN1c2ccc(-c3ccc(F)cc3)cc2[C@H]2[C@H](CCN2S(=O)(=O)c2cccc(F)c2)[C@H]1CO | 8.83
8 | Cc1ccc(NS(=O)(=O)c2cc(C(=O)NCCSc3ccc(C)cc3)ccc2C)cc1 | 4.89
9 | Cc1ccc(S(=O)(=O)N(C)C[C@H]2Oc3ccc(NC(=O)Nc4ccc(C(F)(F)F)cc4)cc3C(=O)N([C@H](C)CO)C[C@H]2C)cc1 | 5.41
10 | CC(=O)Nc1ccc(C(=O)Nc2ccc(S(=O)(=O)NCC3CCCO3)cc2)cc1 (centres undefined) | 2.69
11 | CC(C)CNS(=O)(=O)c1ccc(CCC(=O)NCCC2=CCCCC2)cc1 | 23
12 | Cc1ccc(C2CN(C)C3(C(=O)Nc4ccccc43)C23COc2ccccc2C3=O)cc1 (centres undefined) | 1.08
13 | O=C(CCc1ccc(S(=O)(=O)NC2CCCCC2)cc1)N(Cc1ccccc1)Cc1ccccc1 | 2.07
14 | COc1ccc(C)cc1S(=O)(=O)NC1CCCCC1C (centres undefined) | 3.25
15 | Cc1ccc(NS(=O)(=O)c2cc3c(cc2C)NC(=O)CO3)cc1 | 5.89
16 | CN(c1cccc(NC(=O)c2ccc(Cl)c(S(=O)(=O)Nc3ccccc3)c2)c1)S(C)(=O)=O | 2.18
17 | Fc1cccc(Cn2cc(C(=S)N3CCOCC3)c3ccccc32)c1 | 21
18 | S=C(NCCc1ccccc1)Nc1ccc(Cl)cc1Cl | 5.71
19 | CC1CCCN(C(=O)Cn2nnc(-c3cccnc3)n2)C1 (centres undefined) | 14.4
20 | COc1cc(NS(=O)(=O)c2ccc3c(c2)C(C)(C)C(=O)N3C)cc(OC)c1 | 2.85
21 | O=S(=O)(NCc1ccccc1)c1ccc2c(c1)OCCO2 | 3.42
22 | Cc1ccnc(NCc2cc(C)ccc2O)c1 | 29.8
23 | CCOc1ccccc1NC(=O)Cn1nnc(C(=O)NCc2cccs2)c1N | 5.91
24 | CCOC(=O)c1ccc(NS(=O)(=O)c2cc(C)ccc2OC)cc1 | 8.03
25 | C[C@H]1CN([C@@H](C)CO)C(=O)c2cc(N(C)C)ccc2O[C@H]1CN(C)Cc1ccc(C(=O)Nc2ccccc2N)cc1 | 5.42

Row | Compound | AC40 [µM]
26 | Cc1ccc(NS(=O)(=O)c2cc(C(=O)NCc3ccncc3)ccc2C)cc1 | 2.82
27 | Cc1ccc(-c2cnc(C3CC3)o2)cc1S(=O)(=O)Nc1ccccc1 | 3.08
28 | Cc1ccc(NS(=O)(=O)c2cc3c4c(c2)CC(=O)N4CCC3)cc1C | 2.61
29 | Cc1ccc(S(=O)(=O)N/N=C/c2ccc(OCC(=O)Nc3ccccc3Cl)cc2)cc1 | 5.89
30 | COc1ccccc1NS(=O)(=O)c1cc(NC(=S)NCCN2CCOCC2)ccc1N1CCOCC1 | 1.71
31 | CC(=O)N1c2c(cc(Br)cc2S(=O)(=O)NCC2COc3ccccc3O2)CC1C (centres undefined) | 4.53
32 | CCN(Cc1ccccc1)C(=O)c1[nH]c2ccc(OC)cc2c1C | 12
33 | CCOc1ccc(S(=O)(=O)NCCN2CCOCC2)c2ccccc12 | 1.14
34 | N#CC1c2ccccc2-c2ccccc2N1C(=O)c1ccccc1 (centres undefined) | 8.39
35 | COc1ccc(NC(=O)CCNS(=O)(=O)c2cc(Br)ccc2Br)cc1S(N)(=O)=O | 2.1
36 | O=S(Cc1ccc(Cl)cc1)CC(O)(c1ccccc1)c1ccccc1 (centres undefined) | 18.1
37 | COCCNC(=O)c1ccc(C)c(S(=O)(=O)Nc2ccc(C)cc2)c1 | 6.38
38 | Cc1ccc(C(=O)C2Oc3ccccc3C3CC(c4ccc(C)cc4)=NN23)cc1 (centres undefined) | 1.17
39 | CCN(CC)S(=O)(=O)c1ccc(NS(=O)(=O)c2ccc(C)c(C)c2)cc1 | 11.3
40 | CCOc1cc(C)c(Cl)cc1S(=O)(=O)NCC1CCCO1 (centres undefined) | 1.2
41 | Cc1cc(Cl)c(Cl)cc1S(=O)(=O)NCCCn1ccnc1 | 2.79
42 | O=C1C(Oc2ccccc2)C(c2ccc3c(c2)OCO3)N1CCc1ccc(F)cc1 (centres undefined) | 8.01
43 | Cc1ccc(C)c(NS(=O)(=O)c2cc(C(=O)NCc3ccco3)ccc2C)c1 | 7.68
44 | O=C(Nc1ccc(F)cc1)N1C[C@H]2[C@@H](c3ccccc31)[C@@H](CO)N2C(=O)c1ccc(F)cc1 | 10.9
45 | CCCC(=O)NC(=S)Nc1ccc(S(=O)(=O)Nc2ccc(OCC)cc2)cc1 | 1.42
46 | COc1ccc(S(=O)(=O)NCCc2c(C)nn(C)c2Oc2ccccc2)cc1 | 4.82
47 | Cc1ccc(S(=O)(=O)Nc2ccccc2-c2ccccc2)cc1 | 12.4
48 | COc1ccc(OC)c(S(=O)(=O)Nc2cc3c4c(c2)CCN4C(=O)CC3)c1 | 2.85
49 | CCOc1ccccc1N1CCN(C(=O)c2cccc(-c3ccc(O)cc3)c2)CC1 | 0.659
50 | CCc1ccc(NS(=O)(=O)c2ccc(OC)c3ncccc23)cc1 | 0.362

Row | Compound | AC40 [µM]
51 | O=C(Nc1sc2c(c1C(=O)O)CCCCC2)c1ccco1 | 2.49
52 | Cc1ccc(NS(=O)(=O)c2cccc3nsnc23)cc1C | 4.13
53 | C[C@H](CO)N1C[C@H](C)[C@@H](CN(C)Cc2ccc(C(=O)Nc3ccccc3N)cc2)Oc2c(NS(=O)(=O)c3ccccc3)cccc2C1=O | 20.2
54 | CCOC(=O)C1CCCCN1C(=O)c1cc2ccc(OC)cc2c2cc(OC)c(OC)cc12 (centres undefined) | 4.65
55 | COc1ccc(C)cc1S(=O)(=O)NC1CCCCCC1 | 2.03
56 | COc1ccc(-c2nc3ccccn3c2NC2CCCCC2)cc1SC1CCCCC1 | 7.13
57 | CCN(CC(=O)NCc1cccs1)C(=O)c1cccc(S(=O)(=O)Nc2cccc(C)c2)c1 | 6.04
58 | O=C(NCc1ccncc1)c1cccc(S(=O)(=O)Nc2ccc(F)cc2)c1 | 3.23
59 | Cc1sc(NC(=O)c2ccccc2)c(C(c2ccc(Cl)cc2)N2CCN(CCO)CC2)c1C (centres undefined) | 22.3
60 | C[C@@H]1CN([C@H](C)CO)C(=O)c2cccc(NS(=O)(=O)c3ccccc3)c2O[C@@H]1CN(C)Cc1ccc(C(=O)Nc2ccccc2N)cc1 | 17.2
61 | CCNS(=O)(=O)c1ccc(NS(=O)(=O)c2cc(C)ccc2C)cc1 | 1.86
62 | COc1ccc(NS(=O)(=O)c2c(C)cc(C)cc2C)cc1 | 4.53
63 | C[C@@H]1CN([C@@H](C)CO)C(=O)c2cccc(NC(=O)Nc3ccc(F)cc3)c2O[C@H]1CN(C)Cc1ccc(C(F)(F)F)cc1 | 3.97
64 | COc1cccc(S(=O)(=O)Nc2ccc(C(O)(C(F)(F)F)C(F)(F)F)cc2)c1 | 4.24
65 | Cc1ccc(-c2n[nH]c(=O)c3ccccc23)cc1S(=O)(=O)NCCN1CCOCC1 | 15.4
66 | COc1cccc(NS(=O)(=O)c2c(C)cc(C)cc2C)c1 | 3.37
67 | OC(c1ccc(F)cc1)c1ncc(-c2ccccc2F)[nH]1 (centres undefined) | 5.16
68 | O=C(NCc1cccc(Cl)c1)c1ccc(S(=O)(=O)Nc2cccc(C(F)(F)F)c2)cc1 | 22.5
69 | C[C@@H]1CN([C@H](C)CO)C(=O)c2cccc(NC(=O)C3CCCCC3)c2O[C@@H]1CN(C)Cc1ccc(C(=O)Nc2ccccc2N)cc1 | 6.1
70 | C[C@H]1CN([C@@H](C)CO)C(=O)c2cccc(NC(=O)C3CCOCC3)c2O[C@@H]1CN(C)Cc1ccc2c(c1)OCO2 | 18.2
71 | O=C(c1ccc(F)cc1)N1C[C@H]2[C@@H](c3ccccc31)[C@@H](CO)N2Cc1ccc2c(c1)OCO2 | 17.3
72 | COc1ccc(NS(=O)(=O)c2cc(Br)cc3c2N(C(C)=O)CC3)cc1 | 2.67
73 | CCC(=O)NC(=S)Nc1ccc(S(=O)(=O)NC2CCCCC2)cc1 | 1.1
74 | Cc1ccc(S(=O)(=O)Nc2cc(C)c(O)c(S(=O)(=O)c3ccc(C)cc3)c2)cc1 | 11.2
75 | OC(c1ccc(Cl)c(F)c1)c1ncc(-c2ccccc2F)[nH]1 (centres undefined) | 2.04

Row | Compound | AC40 [µM]
76 | C[C@]12CC[C@H](O)C[C@H]1CC[C@@H]1[C@@H]2CC[C@]2(C)[C@@H](C3=CC(=O)OC3)CC[C@]12O | 5.74
77 | COc1ccccc1-c1nnc2sc(-c3ccc(N(C)C)cc3)nn12 | 7.44
78 | O=C(Nc1ccccc1O)c1ccc(NS(=O)(=O)c2cccc3cccnc23)cc1 | 14.8
79 | CCC1=Nc2cc(C(=O)NCc3ccco3)ccc2Sc2ccc(C)cc21 | 4.49
80 | COc1cc(S(=O)(=O)Nc2ccccc2N2CCCCC2)ccc1NC(C)=O | 6.94
81 | C[C@H](CO)N1C[C@H](C)[C@@H](CN(C)Cc2ccc3c(c2)OCO3)Oc2c(NS(=O)(=O)c3ccc(Cl)cc3)cccc2C1=O | 24.2
82 | COc1cccc(C(O)c2ncc(-c3cccc(F)c3)[nH]2)c1 (centres undefined) | 17.3
83 | C[C@@H]1CN([C@H](C)CO)S(=O)(=O)c2ccc(-c3ccc(F)cc3)cc2O[C@@H]1CN(C)Cc1ccccc1C(=O)O | 5.45
84 | COc1ccc(NC(=O)CCC(=O)c2cccs2)cc1S(=O)(=O)Nc1ccc(Cl)cc1 | 0.884
85 | C[C@H](CO)N1C[C@H](C)[C@H](CN(C)Cc2ccc(C(=O)Nc3ccccc3N)cc2)Oc2c(NS(=O)(=O)c3ccccc3)cccc2C1=O | 16.1
86 | CCC(C)(C)NC(=O)C(c1cccn1C)N(C(=O)Cn1nnc2ccccc21)c1ccc(OC)cc1OC (centres undefined) | 21
87 | C[C@@H]1CN([C@@H](C)CO)C(=O)Cc2cc(NC(=O)Nc3ccc4c(c3)OCO4)ccc2O[C@@H]1CN(C)C(=O)Nc1cccc2ccccc12 | 10.9
88 | CCOC(=O)c1cc(S(=O)(=O)NC2CCCCC2)cn1C | 5.77
89 | C[C@H](CO)N1C[C@H](C)[C@@H](CN(C)Cc2ccc3c(c2)OCO3)Oc2c(NC(=O)C3CCOCC3)cccc2C1=O | 9.34
90 | CCc1ccc(-c2cc(C)no2)cc1S(=O)(=O)NCc1ccco1 | 1.61
91 | C[C@H](CO)N1C[C@H](C)[C@H](CN(C)CC2CCCCC2)Oc2c(NC(=O)c3cnccn3)cccc2C1=O | 1.12
92 | Cc1ccc(C)c(S(=O)(=O)NC(C)CCc2ccccc2)c1 (centres undefined) | 3.81
93 | O=C(c1ccccc1F)N1C[C@H]2[C@@H](c3ccccc31)[C@@H](CO)N2C(=O)c1ccc(F)cc1 | 2.4
94 | C[C@H]1CN([C@@H](C)CO)C(=O)c2cccc(NC(=O)C3CC3)c2O[C@@H]1CN(C)Cc1ccc(C(F)(F)F)cc1 | 0.42
95 | COc1ccccc1CNC(=O)C[C@@H]1CC[C@H]2[C@H](COc3ccc(NC(C)=O)cc3C(=O)N2C)O1 | 22
96 | Cc1ccc(S(=O)(=O)Nc2cccc(S(=O)(=O)N3CCCC3)c2)cc1C | 1.03
97 | Cc1ccc(S(=O)(=O)n2nc(C)c(Br)c2C)c(C)c1C | 12
98 | CCOc1ccc(S(=O)(=O)Nc2ccc3c(c2)OCO3)c2cccnc12 | < 0.26
99 | Cc1cc(C)c(S(=O)(=O)N2CCN=C2c2ccccc2)cc1C | 10.3
